# Experimental data from PubChem BioAssay (NCI).
# Where “and” joins values, the source holds several entries; their conditions need not be identical. Identical values can stand only once.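 Following 48 hours of exposure in 96-well plates, responses at five concentrations were used to interpolate endpoints linearly. The concentration for 50% growth inhibition is given as GI50. TGI: concentration producing complete growth inhibition.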
# Experiments:
# Assay in all cases: NCI tumour cell line growth inhibition, 48 h
# [1] = system: NCI-H23 lung
# [2] = system: BT-549 breast
# [3] = system: SF-295 CNS
# [4] = system: HT29 colon
# [5] = system: U251 CNS
# [6] = system: M14 melanoma
# [7] = system: COLO 205 colon
# [8] = system: MALME-3M melanoma
# [9] = system: SK-OV-3 ovarian
# [10] = system: NCI-H226 lung
SMILES,GI50 [1],TGI [2] [µM],GI50 [3] [µM],GI50 [4] [µM],GI50 [5] [µM],GI50 [6],TGI [7] [µM],TGI [1] [µM],TGI [8] [µM],TGI [9] [µM],TGI [3] [µM],TGI [4] [µM],TGI [5] [µM],TGI [6] [µM],TGI [10] [µM],GI50 [7] [µM],GI50 [2] [µM],GI50 [9] [µM],GI50 [8] [µM],GI50 [10] [µM]
CCN(CC)CCN1C(=O)c2c(c3c4cccc(Cl)c4n(C4OC(CO)C(OC)C(O)C4O)c3c3[nH]c4c(Cl)cccc4c23)C1=O (centres undefined),0.000398 µM and < 0.0329 µM and < 0.01 µM,1.66,0.000169,< 0.0001,< 0.0001,0.000565 µM and < 0.0368 µM and < 0.0145 µM,,,,,,,,,,,,,,
O=C(CCl)N1CCN(c2ccccn2)CC1,,,,,,,47.4,39.9,31.8,> 100,> 10,32.3,33.9,35.5,,,,,,
CC1CN1c1c(C(=O)/C=C/c2ccc(F)cc2)c(-c2ccccc2)nn(C)c1=O (centres undefined),,,,,,,33,27.1,30,,30.2,30.9,28.9,30.5,25.3,,,,,
NC(=S)N/N=C/C(O[C@@H](/C=N/NC(N)=S)CO)n1cnc2c(N)ncnc21 (some centres undefined),,,,,,,> 75.9,> 100,> 100,> 100,> 100,> 100,> 89.4,> 100,> 100,,,,,
CCCN(CCCC(NC(C)=O)C(=O)NCc1ccccc1)C(=O)N(C)N=O (centres undefined),,,,,,,> 100,> 100,> 100,> 100,> 100,> 100,> 100,> 100,> 100,,,,,
Oc1ccc(I)c2cccnc12,,,,,,,79,55.2,61.8,49.5,30.1,> 100,> 100,25.4,41.8,,,,,
CC(=O)CCC[C@@H](C)[C@@H]1O[C@H]([C@@]2(C)CCC(=O)O2)CC2[C@H]1OC(=O)C21CC1 (some centres undefined),15.3 µM,63.4,61.6,> 100,91.3,,> 100,59.6,,> 100,> 100,> 100,> 100,,,> 100,25.5,> 100,,
CCCCCCCCCCCCCCCC(=O)OCC1OC(OCCCC)[C@H](O[C@@H]2OC(C)C(OC(=O)CCC)C(O)C2O)C(O)C1O (some centres undefined),16.2 µM,41.7,13.8,18.6,18.8,,37.2,30.2,42.4,16.1,28.2,38.7,38.8,,36.2,17.8,23.4,5.12,16.7,16.8
O=C1C=C(Nc2cc(Cl)ccc2Cl)c2ccccc2C1=O,,,,,,,> 100,39.3,39.4,> 100,79.3,> 100,> 100,38.9,47.8,,,,,
COC12OCCN(C)C1=CC(=O)C1N=NCC12 (centres undefined),,,,,,,> 100,> 100,,> 100,> 100,> 100,> 100,> 100,> 100,,,,,
O=C(CC(O)(C(F)(F)F)C(F)(F)F)c1cccs1,,> 10,,,,,> 10,> 10,> 10,> 10,> 10,> 10,> 10,> 10,,,,,,
CC(=O)c1ccc(NC(=O)C(=O)CC(=O)c2sc(-n3nc(-c4ccccc4)cc3-c3ccccc3)nc2C)cc1,,,,,,,> 100,> 100,> 100,> 100,> 100,> 100,> 100,> 100,> 100,,,,,
CCOC(=O)C1(C)C2=CC=C(O2)C(C)(C)C2=CC=C(O2)C(C)(C)C2=CC=C(O2)C(C)(C)C2=CC=C1O2,,,,,,,> 100,> 100,> 100,> 100,> 100,> 100,> 100,,> 100,,,,,
COc1ccc(N=Nc2c(-c3ccccc3)nn(C(=O)CC(=O)Nc3ccc(OC)cc3)c2-c2ccccc2)cc1,,,,,,,> 100,> 100,> 100,> 100,> 100,> 100,> 100,,> 100,,,,,
COC(=O)C1=C(C)N(NC(N)=O)C2(N)N(NC(N)=O)C(C)=C(C(=O)OC)C12C#N (centres undefined),,,,,,,> 100,> 100,> 100,> 100,> 100,> 100,> 100,> 100,> 100,,,,,
CS(=O)(=O)ON1C(=O)c2ccc(N)cc2C1=O,,,,,,,> 100,> 100,> 100,> 100,> 100,> 100,> 100,> 100,> 100,,,,,
O=c1[nH]c(-c2ccccc2)nc2cc([N+](=O)[O-])c(/C(Cl)=C/c3ccccc3)cc12,,,,,,,79.9,> 100,> 100,72.2,53.5,,> 100,,> 100,,,,,
Cc1cc(NS(=O)(=O)c2ccc(NC(=O)c3cccc4c(Nc5ccc(S(=O)(=O)Nc6cc(C)on6)cc5)c5ccc(Cl)cc5nc34)cc2)no1,,,,,,,> 100,> 100,> 100,> 100,> 100,> 100,> 100,> 100,,,,,,
O=C1CC[C@@H](S(=O)(=O)c2ccccc2)[C@H](/C=C/c2ccccc2)O1,,,,,,,> 100,> 100,> 100,> 100,> 100,> 100,> 100,> 100,> 100,,,,,
COc1c(CC(C)=O)c2ccccc2n1C(C)=O,,,,,,,> 100,> 100,,> 100,> 100,> 100,> 100,> 100,,,,,,
COc1ccc(/C=C/C(=O)C(=O)/C=C/c2ccc(OC)c(OC)c2)cc1OC,2.99 µM,4.45,3.05,0.763,1.53,1.69 µM,4.95,> 100,78.8,> 100,31.2,2.62,3.6,4.4,,1.9,1.81,36.4,5.77,
